Measurements reported in article PMC10138554, “Insights into the Microbicidal, Antibiofilm, Antioxidant and Toxicity Profile of New O-Aryl-Carbamoyl-Oxymino-Fluorene Derivatives” (International Journal of Molecular Sciences, 2023).
≈ marks a conversion by molar mass, not a printed value.

What was measured:
[1] = test system: Artemia franciscana Kellog nauplii; experiment: Toxicity on the Artemia franciscana Kellog crustacean species (lethality of nauplii); type: in vivo; conditions: tested concentrations 6.2–100 μg/mL (solubility limit), 24 h
Protocol: The oocysts (Great Salt Lake, USA) provided by S.K. Trading were grown on artificial seawater medium (Coral Marine, Grotech), dissolved in distilled water with a few minutes of sonication, at 30 g/L concentration. The test was carried out in a 24-well plate, using three replicates. Because of their low solubility, the compounds 1a–d were suspended in the culture medium using sodium alginate (0.045%) (also used a negative control), the testing being carried out at the solubility limit. The concentrations 100, 50, 25, 12.5 and 6.2 μg/mL used for each substance were obtained by successive dilutions starting from the initial suspension. Between 10 and 15 nauplii per well were collected and placed in contact with the test suspensions (1.5 mL/well). All nauplii, dead or alive, were counted and recorded within 24 h of being placed in contact with the tested suspensions. The non-linear modeling of the concentration-lethality relationship was achieved through a four-parameter logistics model (4PL), implemented in several robust variants for estimating parameters in the R package “dr4pl” [78].

P. aeruginosa ATCC 27853 [2] = experiment: Anti-biofilm activity assay, purple violet microtiter method; type: cell-based, Pseudomonas aeruginosa; conditions: P. aeruginosa ATCC 27853 biofilm
Protocol: (§1) The inhibitory activity of the obtained compounds has been assessed on five microbial strains, respectively: E. coli ATCC 25922, P. aeruginosa ATCC 27853, S. aureus ATCC 25923, E. faecalis ATCC 29212 and C. albicans ATCC 90029, in a planktonic and adherent growth state.
(§2) The anti-biofilm activity assay was performed by the purple violet microtiter method, as previously described, allowing us to determine the minimal biofilm inhibitory concentration (MBEC). The same range of concentrations, as in the MIC assay, i.e., from 5 to 0.009 mg/mL has been tested.

E. faecalis ATCC 29212 [3] = experiment: MIC assay, serial two-fold microdilution in liquid medium; type: cell-based; conditions: Enterococcus faecalis, ATCC29212; E. faecalis ATCC 29212, planktonic, 37 °C, 24 h; read-out: minimum inhibitory concentration (MIC)
Protocol: as §1
(§3) The MIC assay was performed by the serial two-fold microdilutions in a liquid medium, using a concentration range from 5 to 0.009 mg/mL and microbial suspensions of 0.5 MacFarland density. The wells containing only the microbial culture served as positive control and those containing the sterile culture medium as the negative control. The MIC values were read after incubation at 37 °C for 24 h.

C. albicans ATCC 90029 [4] = experiment: as above; type: cell-based; conditions: Candida albicans, ATCC90029; C. albicans ATCC 90029, planktonic, 37 °C, 24 h; read-out: minimum inhibitory concentration (MIC)
Protocol: as §1, §3

S. aureus ATCC 25923 [5] = experiment: as above; type: cell-based; conditions: Staphylococcus aureus, ATCC25923; S. aureus ATCC 25923, planktonic, 37 °C, 24 h; read-out: minimum inhibitory concentration (MIC)
Protocol: as §1, §3

E. coli ATCC 25922 = experiment: as above; type: cell-based; conditions: Escherichia coli, ATCC25922; E. coli ATCC 25922, planktonic, 37 °C, 24 h; read-out: minimum inhibitory concentration (MIC)
Protocol: as §1, §3

P. aeruginosa ATCC 27853 [6] = experiment: as above; type: cell-based; conditions: Pseudomonas aeruginosa, ATCC27853; P. aeruginosa ATCC 27853, planktonic, 37 °C, 24 h; read-out: minimum inhibitory concentration (MIC)
Protocol: as §1, §3

E. faecalis ATCC 29212 [7] = experiment: Flow cytometry (FCM) membrane depolarization, DiBAC4(3); type: cell-based; conditions: for staining index value (SI): E. faecalis ATCC 29212, DiBAC4, 18–24 h
Protocol: (§4) The investigation of potential mechanisms of antimicrobial action by flow cytometry (FCM) was performed on microbial cultures obtained after 18–24 h of microbial cell incubation in the presence of subinhibitory concentrations of the analyzed compounds. Thus, microbial suspensions with a density of approximately 10^6 CFU/mL were prepared in sterile saline phosphate buffer from exponentially growing microbial cultures, obtained on a solid culture medium. Subinhibitory concentrations of the compounds were prepared in Muller–Hinton liquid culture medium and inoculated with an equal amount of microbial suspension and incubated for 18–24 h at 37 °C.
(§5) Microbial suspensions inoculated in a liquid medium were used as growth control. After incubation, the DiBAC4 fluorochrome solution [bis-(1,3-dibutylbarbituric acid) trimethinoxonol] Invitrogen/Life Technologies, Carlsbad, was added (0.5 μg/mL).
(§6) Fluorescence intensity (FI) was measured with an Accuri C6 plus flow cytometer in the FITC fluorescence channel. Growth control was used to locate the microbial cell population for fluorescence measurements. DiBAC4 dye was used to detect changes in the microbial membrane potential. […] A twofold increased fluorescence intensity (median fluorescence intensity = MFI) was considered to correspond to the depolarized microbial cells. For each subinhibitory concentration, a coloring index (CI) was calculated which represents the ratio of fluorescence intensity (FI) of treated versus untreated cells.

E. faecalis ATCC 29212 [8] = experiment: Anti-biofilm activity assay, purple violet microtiter method; type: cell-based; conditions: E. faecalis ATCC 29212 biofilm
Protocol: as §1, §2

[9] = Scavenger activity towards ABTS•+ free radical; type: biochemical; conditions: 6 min; for IC50: linear regression over 25–1000 μM, mean ± SD of three, read-out: IC50 by means of ABTS•+ assay
Protocol: The method according to Re R. et al. was used to evaluate the scavenger capacity of the free radical.
The ABTS^•+ free radical resulted from the reaction between 2,2′-azinobis-(3-ethylbenzothiazoline-6-sulfonic acid) diammonium salt (7.4 mM) (solution 1) (Sigma-Aldrich, Germany) and potassium persulfate (2.6 mM) (solution 2) (Roth, Germany).
In order to obtain the ABTS^•+ free radical reagent, equal volumes of solutions 1 and 2 were mixed for 16 h. The obtained reagent was kept in the dark; 1 mL of the obtained solution was brought to a 50 mL volumetric flask and diluted with ethanol so that the absorbance at λ = 734 nm would be 0.700 ± 0.02.
The tested compounds were dissolved and diluted similar to the previous antioxidant assay. […]
The following formula was used for the calculation of the ABTS^•+ free radical scavenger activity (%) Inhibition %=Abst=0min−Abst=6min/Abst=0min×100 where: Abst = ABTS^•+ solution absorbance in the absence (0 min)/presence (6 min) of the tested compounds.
For both the above-mentioned methods, the antioxidant activity was expressed as IC50 values (μM) which represent the concentration of each compound for which the scavenging activity of free radicals is 50%. […]

S. aureus ATCC 25923 [10] = experiment: Anti-biofilm activity assay, purple violet microtiter method; type: cell-based, Staphylococcus aureus; conditions: S. aureus ATCC 25923 biofilm
Protocol: as §1, §2

C. albicans ATCC 90029 [11] = experiment: Flow cytometry (FCM) membrane depolarization, DiBAC4(3); type: cell-based, Candida albicans; conditions: subinhibitory concentration tested 2.5 mg/mL, DiBAC4, 18–24 h
Protocol: as §4, §5, §6

[12] = subinhibitory concentration tested 2.5 mg/mL
[13] = subinhibitory concentration tested 1.25 mg/mL

SMILES | toxicity (in words) [1] | minimum biofilm inhibitory concentration (MBIC) (P. aeruginosa ATCC 27853 [2]) | MIC (E. faecalis ATCC 29212 [3]) | MIC (C. albicans ATCC 90029 [4]) | MIC (S. aureus ATCC 25923 [5]) | MIC (E. coli ATCC 25922) | MIC (P. aeruginosa ATCC 27853 [6]) | staining index value (SI) (E. faecalis ATCC 29212 [7]; [12]) | minimum biofilm inhibitory concentration (MBIC) (E. faecalis ATCC 29212 [8]) | IC50 [9] | minimum biofilm inhibitory concentration (MBIC) (S. aureus ATCC 25923 [10]) | staining index value (SI) (C. albicans ATCC 90029 [11]) | ABTS•+ free radical scavenger activity ([9]; at 1000 μM) | changes in the membrane potential (E. faecalis ATCC 29212 [7]; E. faecalis ATCC 29212, subinhibitory concentration) | staining index value (SI) (E. faecalis ATCC 29212 [7]; [13]) | ABTS•+ free radical scavenger activity ([9]; at 25 μM)
O=C(Nc1ccccc1)ON=C1c2ccccc2-c2ccccc21 [Compound 1a, 9-(phenylcarbamoyloxymino)fluoren] | not toxic | 0.009 mg/mL | 2500 µg/mL (≈ 7.95 mM) | 2500 µg/mL (≈ 7.95 mM) | 2500 µg/mL (≈ 7.95 mM) | 2500 µg/mL (≈ 7.95 mM) | 2500 µg/mL (≈ 7.95 mM) | 2.21 | 1.25 mg/mL | 9.8854 ± 0.000251 mM | 5 mg/mL | 4.94 | – | – | – | –
Cc1cccc(NC(=O)ON=C2c3ccccc3-c3ccccc32)c1 [Compound 1b, 9-((3-methyl-phenyl)carbamoyloximino)fluoren] | not toxic | 0.156 mg/mL | 10000 µg/mL (≈ 30.5 mM) | 5000 µg/mL (≈ 15.2 mM) | 2500 µg/mL (≈ 7.61 mM) | 5000 µg/mL (≈ 15.2 mM) | 2500 µg/mL (≈ 7.61 mM) | 3.99 | 1.25 mg/mL | 9.3794 ± 0.00102 mM | 2.5 mg/mL | 2.82 | 26.60% | – | – | –
O=C(Nc1cccc(Cl)c1)ON=C1c2ccccc2-c2ccccc21 [Compound 1c, 9-((3-chloro-phenyl)carbamoyloxymino)fluoren] | not toxic | 1.25 mg/mL | 5000 µg/mL (≈ 14.3 mM) | 5000 µg/mL (≈ 14.3 mM) | 2500 µg/mL (≈ 7.17 mM) | 2500 µg/mL (≈ 7.17 mM) | 2500 µg/mL (≈ 7.17 mM) | – | 0.312 mg/mL | 18.2 mM | 5 mg/mL | – | – | did not cause changes | 0.32 | 12.53%
O=C(Nc1ccc(Cl)c(Cl)c1)ON=C1c2ccccc2-c2ccccc21 [Compound 1d, 9-((3,4-dichloro-phenyl)carbamoyloxymino)fluoren] | moderate toxicity | 1.25 mg/mL | 5000 µg/mL (≈ 13 mM) | 5000 µg/mL (≈ 13 mM) | 156 µg/mL (≈ 0.407 mM) | 5000 µg/mL (≈ 13 mM) | 2500 µg/mL (≈ 6.52 mM) | – | 1.25 mg/mL | – | 0.019 mg/mL | 20.21 | – | – | 44.54 | –
